Source: patent publication US8901276B2, “Peptide reagents and methods for detection of colon dysplasia” (The Regents of the University of Michigan, priority 2010, dated 2014)
“Also recorded” adds a separate entry of the source.

Tests used:
Hs738.St/Int. cells [1] = assay: Fluorescence microscopy of FITC-labeled peptides; type: cell-based, human; details: 10 μM, 15 min
Description: (§1) Preferential binding of the FITC-Peptide 2 and FITC-Control peptide 2 to target and non-target cells was also validated via fluorescence microscopy. HT29 and Hs738.St/Int. cells were grown in 22 mm2 cover slips with ˜80% confluence. Blocking of non-specific binding was performed by adding PBS/0.5% BSA for 30 min. The cells were then incubated with 10 μM of FITC-Peptide 2 or FITC-Control peptide 2 either at 4 or 37° C. for 15 min followed by 1 μg/mL Hoechst dye (Sigma Aldrich, St. Louis, Mo.) along with the peptide. The cells were washed with PBS for 3 times and fixed with 4% paraformaldehyde at room temperature for 10 min. After fixation, the cells were washed again with PBS (1×) and mounted with ProLong® Gold reagent (Invitrogen, Carlsbad, Calif.) and the fluorescence images were acquired with Leica Confocal system. (Leica Microsystems GMBH, Wetzlar, 35578 Germany)
(§2) Preferential binding of the FITC-labeled candidate and control peptides to the target and non-target cells was further validated via fluorescence microscopy. HT29 and Hs738.St/Int. cells were grown on cover slips to ˜80% confluence. Blocking of non-specific binding was performed by adding PBS/0.5% BSA for 30 min. The cells were then incubated with 10 μM of 5-FITC-labeled candidate or control peptide at either 4 or 37° C. for 15 min followed by staining with 1 μg/mL Hoechst dye (Sigma Aldrich, St. Louis, Mo.) along with the peptide. The cells were washed 3× with PBS and fixed with 4% paraformaldehyde at RT for 10 min. After fixation, the cells were washed again with PBS and mounted with ProLong Gold reagent (Invitrogen, Carlsbad, Calif.) and fluorescence images were collected with confocal microscopy (Leica TCS SP5 Microsystems, Bannockburn, Ill.).

Hs738.St/Int. cells [2] = assay: Flow cytometry of FITC-labeled peptides; type: cell-based, human; details: 10 μM, 60 min, 4° C.
Description: (§3) Preferential binding of FITC-Peptide 2 to target cells was validated using flow cytometry. HT29 and Hs738.St/Int. (˜2×10^5) cells were grown, detached, and blocked as described above. These cells were incubated with the FITC-Peptide 2 or -Control peptide 2 (10 μM) for 60 min at 4° C. with continuous agitation. The cells were then washed (3×) with cold PBST followed by immediate fixing for 10 min. with 4% paraformaldehyde. The cells were washed again (1×) with PBS and resuspended in 1 mL of PBS. Flow cytometry was performed using FACSDiVa (BD® LSRII, BD Biosciences, San Jose, Calif.) and analyzed using Flowjo analysis program (Tree Star Inc., Ashland, Oreg.).
(§4) Preferential binding of the candidate peptide labeled with 5-FITC to the target and control cells was also validated using flow cytometry. HT29 and Hs738.St/Int. (˜2×10^5) cells were grown, detached, and blocked, as described above. These cells were incubated with the 5-FITC labeled candidate or control peptide (10 μM) for 60 min at 4° C. with continuous agitation. The cells were then washed 3× with cold PBST followed by immediate fixation for 10 min with 4% paraformaldehyde. The cells were washed again with PBS and resuspended in 1 mL of PBS. Flow cytometry was performed using FACSDiVa (BD® LSRII, BD Biosciences, San Jose, Calif.) and analyzed using Flowjo analysis program (Tree Star Inc. Ashland, Oreg.).

HT29 cells [3] = assay: Flow cytometry of FITC-labeled peptides; type: cell-based, human; details: 10 μM, 60 min, 4° C., FITC channel
Description: as §3, §4

[4] = test system: human colon surgical specimens (normal mucosa, dysplastic adenomas, carcinoma); assay: Binding of synthetic peptides to human surgical specimens of colon cancer (Example 9)
Description: Fresh frozen sections from human surgical specimens were cryosectioned with […] and used to localize peptide binding. The sectioned tissues were air dried and washed with PBS 1×. Sections were incubated with FITC labeled peptides (10 μM) for 15 min at RT. The sections were washed three times each for 1 min in PBS and fixed with 4% paraformaldehyde for 10 min. After fixing, the sections were washed again (1×) and mounted with ProLong® Gold reagent with DAPI (Invitrogen, Carlsbad, Calif.). The sections were imaged under a confocal microscope ([…]). All surgical specimens were obtained from the tissue procurement core of University of Michigan with approval from the Institutional Review Board (IRB).

HT29 cells [5] = assay: Fluorescence microscopy of FITC-labeled peptides; type: cell-based, human; details: 10 μM; for internalization within HT29 cells: 37° C.; for binding to the surface of HT29 cells: 15 min, 4° C.
Description: as §1
In addition, the ability of the FITC-Peptide 2 peptide to internalize within the HT29 cells was tested. HT29 cells were incubated for 15 min. at either 4° C. or 37° C. in the presence of 10 μM FITC-Peptide 2.
as §2

KCCFPAQ-FITC [FITC-Peptide 2, KCCFPAQ with FITC at the C-terminus on the side chain of lysine residue via GGGSK linker]
binding to Hs738.St/Int. cells on microscopy (Hs738.St/Int. cells [1]): not the surface of the Hs738.St/Int cells
binding to Hs738.St/Int. cells on microscopy (Hs738.St/Int. cells [1]; listed as KCCFPAQ peptide): No binding
binding to Hs738.St/Int. cells on flow cytometry (Hs738.St/Int. cells [2]): bound minimally
total HT29 cell population bound (HT29 cells [3]): About 97%
total HT29 cell population bound (HT29 cells [3]; listed as KCCFPAQ peptide): 97%
T/B carcinoma compared to normal mucosa [4]: 7
binding to carcinoma relative to dysplastic adenomas [4]: 1.5 fold
binding to normal mucosa ([4]; 10 μM, 15 min, RT): no binding was observed
staining of pre-malignant lesions (dysplastic adenomas) and malignant lesions (carcinoma) ([4]; 10 μM, 15 min, RT): stained consistently
T/B ratio FITC-Peptide 2 vs. FITC-Control peptide 2 ([4]; adenoma): 3
T/B ratio FITC-Peptide 2 vs. FITC-Control peptide 2 ([4]; carcinoma): 6
T/B ratio FITC-Peptide 2 vs. FITC-Control peptide 2 ([4]; normal mucosa): 1
internalization within HT29 cells (HT29 cells [5]): diffuse staining throughout the cells
internalization within HT29 cells (HT29 cells [5]; listed as KCCFPAQ peptide): diffuse peptide staining throughout the cells
binding to the surface of HT29 cells (HT29 cells [5]): binds to the surface of the HT29; also recorded: confined to the cell surface
binding to the surface of HT29 cells (HT29 cells [5]; listed as KCCFPAQ peptide): binds to the surface of the HT29 cells
